One assay concerns the target T1, ICE (Homo sapiens, UniProt P29466).
T1 sequence (P29466 120-297 limits assumed): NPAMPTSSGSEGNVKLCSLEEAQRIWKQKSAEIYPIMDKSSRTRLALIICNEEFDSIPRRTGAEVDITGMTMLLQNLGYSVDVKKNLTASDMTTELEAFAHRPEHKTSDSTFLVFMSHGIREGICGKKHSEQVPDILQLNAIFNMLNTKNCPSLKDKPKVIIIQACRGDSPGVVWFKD
T1 sequence (P29466 317-404 limits assumed): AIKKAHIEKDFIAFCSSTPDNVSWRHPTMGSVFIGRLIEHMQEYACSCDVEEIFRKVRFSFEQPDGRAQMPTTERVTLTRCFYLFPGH
The assay can be described thus: Enzyme assay with UV-visible substrate (visible ICE assay, Succinyl-Tyr-Val-Ala-Asp-pNitroanilide). The format is biochemical. In short, it runs like this:
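ICE preincubated with inhibitor in DMSO for 15 min at room temperature, then Suc-Tyr-Val-Ala-Asp-pNA added. pNA release read at 405-603 nm for 20 min at 37 °C, rate from linear fit in mOD/min. Ki and inhibition mode from fits of rates at varying inhibitor concentrations to standard kinetic equations.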

The test system of assay [1] is IL-1β, human peripheral blood mononuclear cells (PBMC). The assay can be described thus: PBMC cell assay: IL-1β assay with human PBMC or enriched adherent mononuclear cells, LPS-stimulated. The format is cell-based. In short, it runs like this: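 Buffy-coat human PBMC at 6×10^6 cells/ml, or adherent monocytes enriched by 1 h adherence (2.5−3.0×10^5 cells/well), are given 5–6 compound dilutions bracketing the ICE Ki (final DMSO 0.1%) plus LPS at a final 5 ng/ml. They are incubated 16–18 hr at 37 °C, 5% CO2, and supernatant mature IL-1β is measured by ELISA, with duplicate cultures and duplicate ELISAs.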

The mark [2] stands for this setting: Homo sapiens, PBMC, * = values obtained upon reassay.
Setting [3] is: * = values obtained upon reassay.

The values below come from US20120165319A1, “INHIBITORS OF INTERLEUKIN-1 BETA CONVERTING ENZYME” (VERTEX PHARMACEUTICALS INCORPORATED, priority 1995, published 2012).

`CN(C)c1ccc(C(=O)N[C@H]2CCC(=O)N3CCC[C@@H](C(=O)N[C@H](C=O)CC(=O)O)N3C2=O)cc1` [Compound 471] gave a Ki at ICE (Table 5) of 1 nM. The IC50 in assay [1] (setting [2]) came to 750 nM.
`O=C1C[C@H](NC(=O)[C@@H]2CCCN3C(=O)CC[C@H](NC(=O)c4ccccc4)C(=O)N23)[C@H](OCc2ccccc2)O1` [Compound 2100o, [1S,9S(2R,3S)]9-Benzoylamino-N-(2-benzyloxy-5-oxotetrahydrofuran-3-yl)-6,10-dioxo-1,2,3,4,7,8,9,10-octahydro-6H-pyridazino[1,2-a][1,2]diazepine-1-carboxamide] displayed a Ki on ICE (Table 17) of 670 nM. The compound further gave an IC50 in assay [1] (Homo sapiens, PBMC, Table 17) of 1150 nM.
As to `O=C[C@H](CC(=O)O)NC(=O)[C@@H]1CCCN2C(=O)CC[C@H](NC(=O)c3cccc(Cl)c3)C(=O)N12` [Compound 455], the Ki on ICE (Table 5) was 1.2 nM. Further, the IC50 in assay [1] (setting [2]) turned out to be 400 nM.
In turn, `COC(=O)N[C@H]1CCC(=O)N2CCC[C@@H](C(=O)N[C@@H](CC(=O)O)C(=O)CSc3ncccn3)N2C1=O` [Compound 511c, [3S(1S,9S)]3-[6,10-Dioxo-9-(methoxycarbonyl)-amino-1,2,3,4,7,8,9,10-octahydro-6H-pyridazino[1,2-a][1,2]diazepine-1-carboxamido]-5-(2-mercaptopyrimidine)-4-oxopentanoic acid] yielded a Ki on ICE (Table 17) of 730 nM. For the same compound, the IC50 in assay [1] (Homo sapiens, PBMC, Table 17) is greater than 20000 nM.
Turning to `O=C[C@H](CC(=O)O)NC(=O)[C@@H]1CCCN2CCC[C@H](NC(=O)c3ccccc3)C(=O)N12` [Compound 246], the Ki at ICE (Table 5) was 12 nM. In assay [1] (setting [2]), this compound registered a 50% inhibitory concentration (IC50) of 950 nM.
In turn, `COc1cc(C(=O)N[C@H]2CCC(=O)N3CCC[C@@H](C(=O)N[C@H](C=O)CC(=O)O)N3C2=O)cc(OC)c1OC` [Compound 417, [3S(1S,9S)]3-[6,10-Dioxo-1,2,3,4,7,8,9,10-octahydro-9-(3,4,5-trimethoxybenzoylamino)-6H-pyridazino[1,2-a][1,2]diazepine-1-carboxamido]-4-oxobutanoic acid] returned a Ki at ICE (Table 5) of 8 nM. The same compound showed an IC50 in assay [1] (setting [2]) of 2000 nM.
Taken in the same sequence, the figures for `O=C[C@H](CC(=O)O)NC(=O)[C@@H]1CCCN2C(=O)CC[C@H](NC(=O)c3ccsc3)C(=O)N12` [Compound 410] were 17 nM and 2000 nM.
As to `O=C[C@H](CC(=O)O)NC(=O)[C@@H]1CCCN2C(=O)CC[C@H](NC(=O)c3cc(Cl)c(O)c(Cl)c3)C(=O)N12` [Compound 214k, [3S(1S,9S)]3-(9-(3,5-Dichloro-4-hydroxybenzoyl)amino-6,10-dioxo-1,2,3,4,7,8,9,10-octahydro-6H-pyridazino[1,2-a][1,2]diazepine-1-carboxamido)-4-oxobutanoic acid], the Ki at ICE (Table 17) was determined as 0.2 nM. Besides, 500 nM corresponded to half-maximal inhibition in assay [1] (Homo sapiens, PBMC, Table 17) (IC50).
On ICE (Table 5), `CC(=O)N1C[C@H](NC(=O)c2ccc3ccccc3c2)C(=O)N(CC(=O)N[C@H](C=O)CC(=O)O)c2ccccc21` [Compound 605n] displayed a Ki of 12 nM. Further, the IC50 in assay [1] (setting [2]) turned out to be 2100 nM.
For `CC(C)OC1OC(=O)C[C@@H]1NC(=O)[C@@H]1CCCN2C(=O)CC[C@H](NC(=O)c3ccccc3)C(=O)N12` (stereo partly drawn) [Compound 2100a, [1S,9S(2RS,3S)]9-Benzoylamino-6,10-dioxo-1,2,3,4,7,8,9,10-octahydro-N-(2-isopropoxy-5-oxo-tetrahydro-furan-3-yl)-6H-pyridazino-[1,2-a][1,2]diazepine-1-carboxamide] the same measures were 100 nM and 1100 nM.
Taken in the same sequence, the figures for `O=C[C@H](CC(=O)O)NC(=O)[C@@H]1CCCN2C(=O)CC[C@H](NC(=O)c3ccc(Cl)cc3)C(=O)N12` [Compound 416] were 12 nM and 1200 nM.
Regarding `O=C[C@H](CC(=O)O)NC(=O)[C@@H]1CCCN2C(=O)CC[C@H](NC(=O)c3ccc4nc[nH]c4c3)C(=O)N12` [Compound 434], the Ki at ICE (Table 5) was determined as 4.9 nM. The results for the IC50 in assay [1] (setting [3]) and in assay [1] (setting [2]) were 1200 nM and 1600 nM, respectively.
Consider `O=C[C@H](CC(=O)O)NC(=O)[C@@H]1CCCN2C(=O)CCN(NC(=O)c3cc4ccccc4s3)C(=O)N12` [Compound 1053, [3S(4S)]3-[7-(Benzo[b]thiophene-2-carbonyl)amino-6,10-dioxo-1,2,3,4,7,8,9,10-octahydro-6H-pyridazino[1,2-a][1,2,4]triazepine-4-carboxamido]-4-oxobutanoic acid], for which the affinity on ICE (Table 17) corresponds to a Ki of 27 nM. Further, in assay [1] (Homo sapiens, PBMC, Table 17), the IC50 turned out to be 2000 nM.
Turning to `O=C[C@H](CC(=O)O)NC(=O)[C@@H]1CCCN2C(=O)CC[C@H](NC(=O)c3cccc4ccccc34)C(=O)N12` [Compound 408, [3S(1S,9S)]3-[6,10-Dioxo-9-(naphth-1-oylamino)-1,2,3,4,7,8,9,10-octahydro-6H-pyridazino[1,2-a][1,2]diazepine-1-carboxamido]-4-oxobutanoic acid], the Ki on ICE (Table 5) worked out at 0.5 nM. The IC50 in assay [1] (setting [2]) came out at 1100 nM.
For `COC(=O)C[C@H](NC(=O)[C@@H]1CCCN2C(=O)CC[C@H](NC(=O)c3ccccc3)C(=O)N12)C(OC)OC` [Compound 2100c] the same measures were 7400 nM and greater than 20000 nM.
For the compound `O=C[C@H](CC(=O)O)NC(=O)[C@@H]1CCCN2C(=O)CCN(NC(=O)c3ccc4c(c3)OCO4)C(=O)N12` [Compound 1015, [3S(4S)]3-[6,10-Dioxo-7-(3,4-methylenedioxybenzoylamino)-1,2,3,4,7,8,9,10-octahydro-6H-pyridazino[1,2-a][1,2,4]triazepine-4-carboxamido]-4-oxobutanoic acid], at ICE (Table 5), the affinity, expressed as Ki, was 40 nM. Further, inhibition in assay [1] (setting [2]) was half-maximal at 2500 nM (IC50).
As for `CC(C)CC(=O)Nc1ccc(C(=O)N[C@H]2CCC(=O)N3CCC[C@@H](C(=O)N[C@H](C=O)CC(=O)O)N3C2=O)cc1` [Compound 487, [3S(1S,9S)]3-{6,10-Dioxo-9-[4-(3-methylbutan-1-oylamino)benzamido]-1,2,3,4,7,8,9,10-octahydro-6H-pyridazino[1,2-a][1,2]diazepine-1-carboxamido}-4-oxobutanoic acid], on ICE (Table 5), the Ki is 2.4 nM. Besides, the IC50 was determined as 950 nM in assay [1] (setting [3]) and 650 nM in assay [1] (setting [2]).
`CC(=O)N1C[C@H](NC(=O)c2cc(Cl)c(O)c(Cl)c2)C(=O)N(CC(=O)N[C@H](C=O)CC(=O)O)c2ccccc21` [Compound 656, (3S)-3-[(3S)-2-Oxo-3-(3,5-dichloro, 4-hydroxybenzoyl)amino-5-acetyl-2,3,4,5-tetrahydro-1H-1,5-benzodiazepine-1-acetylamino-]4-oxo-butyric acid] registered a Ki on ICE (Table 17) of 0.6 nM. In assay [1] (Homo sapiens, PBMC, Table 17), 2100 nM corresponded to half-maximal inhibition (IC50).
In the case of `CC(=O)N1C[C@H](NC(=O)c2cc(C)c(O)c(C)c2)C(=O)N(CC(=O)N[C@H](C=O)CC(=O)O)c2ccccc21` [Compound 671, (3S)-3-[(3S)-2-Oxo-3-(3,5-dimethyl-4-hydroxybenzoyl)amino-5-acetyl-2,3,4,5-tetrahydro-1H-1,5-benzodiazepine-1-acetylamino]-4-oxo-butyric acid], the Ki at ICE (Table 17) stood at 5 nM. The IC50 in assay [1] (Homo sapiens, PBMC, Table 17) came to 2000 nM.
Consider `O=C(O)C[C@H](NC(=O)[C@@H]1CCCN2C(=O)CC[C@H](NC(=O)c3ccccc3)C(=O)N12)C(=O)c1nc2cc(Cl)cc(Cl)c2o1` [Compound 223e, [3S(1S,9S)]3-(9-Benzoylamino-6,10-dioxo-1,2,3,4,7,8,9,10-octahydro-6H-pyridazino-[1,2-a][1,2]diazepine-1-carboxamido)-4-(5,7-dichlorobenzoxazol-2-yl)-4-oxobutanoic acid], for which the Ki on ICE (Table 5) was determined as 1.6 nM. Besides, the IC50 in assay [1] (setting [2]) came to 3000 nM.

What is called Ki is the dissociation constant of the complex between target and ligand, obtained from inhibition or displacement. For orientation: IC50 means the midpoint of a concentration-inhibition curve. Read a low IC50 as greater potency.
